Source: patent US20230303506A1, “COMPOSITIONS AND METHODS FOR THE PREVENTION AND/OR TREATMENT OF MITOCHONDRIAL DISEASE, INCLUDING FRIEDREICH'S ATAXIA” (Stealth BioTherapeutics Inc., priority 2019, published 2023)
Entries after “also recorded” stand apart in the source; their conditions may differ. Like-named read-outs stand apart in the source and are kept apart here.

Assays:
[1] = test system: frataxin deficient fibroblasts (GM03665); assay: cells; format: cell-based; conditions: for EC50: 10 mM BSO, 48 hrs, MTT
[2] = test system: HepG2 human hepatocarcinoma cells; assay: Rotenone ATP Assay (Complex I Assay); format: cell-based; conditions: for activity in both the BSO Assay and the Rotenone ATP Assay, in words: BSO Assay and Rotenone ATP Assay taken together; for EC50 / Rotenone ATP Assay EC50, nM: HepG2, 50 micromolar rotenone, 60 minutes; for Complex I by-pass activity / restoring ATP production, in words: summary of rotenone assays
Procedure: This assay has been adapted from Haefeli R H, Erb M, Gemperli A C, Robay D, Courdier Fruh I, et al. (2011) NQO1-Dependent Redox Cycling of Idebenone: Effects on Cellular Redox Potential and Energy Levels. PLoS ONE 6(3): e17963. HepG2 human hepatocarcinoma cells were co-incubated with the electron transport chain Complex I toxin rotenone +/− compounds of interest and the corresponding effect on ATP synthesis was measured with a bioluminescent substrate.
In brief, HepG2 cells were plated at 25,000 cells per well in low glucose (1 gram/Liter) DMEM medium+10% fetal calf serum and incubated for 24 hours. The following day, the media was decanted and subsequently replaced with glucose free/serum free DMEM which has been supplemented with 50 micromolar rotenone and compound of interest. Serial dilutions of compound were prepared in 3× dilutions beginning at 25 micromolar. The cells were incubated for 60 minutes in a humidified tissue culture incubator. Following incubation, ATP levels were quantified via bioluminescent assay (Promega […] Glo Assay kit) and readings were captured on a standard microplate reader.
ATP bioluminescence is plotted versus the log of compound of interest and data were used to generate EC50 values. Curve fitting was performed using a sigmoidal dose response curve fit function (GraphPad Prism software).
Robustness of curve fit was assessed as a quality control measure, with an R squared value of at least 0.80 being required for a successful curve fit. Compounds of interest showing an increase in ATP bioluminescence relative to vehicle control were verified in an independent biological replicate of n=3 technical replicates per dose.
This assay is a direct measure of the ability of compounds of interest to restore ATP production under conditions of inhibition of Complex I of the mitochondrial electron transport chain. As the majority of ATP produced via the electron transport chain is thought to derive from Complex I activity, significant impairment in Complex I function has dire biological consequences. Of note, Complex I mutations are thought to drive pathophysiology in multiple mitochondrial diseases, including Leigh syndrome and Leber's Hereditary Optic Neuropathy (LHON), while diminished Complex I activity and the resultant attenuation of ATP production has been shown in neurodegenerative diseases, including Friedreich's Ataxia, Parkinson's Disease and Huntington's Disease.

GM03665 cells = assay: RSL3 Toxicity Assay (RSL3 Assay); format: cell-based, human
Procedure: In brief, GM03665 cells (Coriell Institute) were seeded in 96-well plates (Sarstedt) in DMEM cell culture media containing 10% Fetal Bovine serum and 1% Penicillin-Streptomycin (Pen-Strep) antibiotic mix at the amount of 2×10^4/mL (100 μL or 2×10^3 cells per well). Cells were left to rest overnight at 37° C. in a humidified atmosphere with 5% CO2 to allow attachment of the cells to the culture plate. Test compounds were prepared as DMSO stocks (10 mM) and were serially diluted in cell culture media to obtain 2× working solutions. Cell media was discarded and replaced by 50 μL of test compound solutions or cell media with vehicle for control wells. Within 15 minutes, 2× working solution (4 μM) of 1S,3R-RSL3 (CAS #1219810-16-8, Sigma-Aldrich) (diluted from 5 mM DMSO stock in cell culture media) was added. Final reaction volume was 100 μL and final DMSO concentration in reaction was kept below 0.2% (v/v) and equal in all wells. Final RSL3 concentration was 2 μM and test compound final concentrations in reaction were up to 1000 nM. After 24 hours of incubation cell viability was assessed by MTT test. MTT (Sigma-Aldrich) solution 1 mg/mL in 1×PBS (pH=7,4) was prepared 1 hour before the assay and filtered through Filtropur S 0.2 filters (Sarstedt). Cell media with test compounds was discarded and 100 μL of MTT solution was added to cells. The plates were incubated for 2 hours at +37° C. Thereafter, the MTT solution was removed and 100 μL of isopropanol was added to dissolve sediment. Absorption at 570 and 650 nm was measured using Hidex Sense microplate reader.

HepG2 cells = assay: Rotenone Oxygraph Assay (high-resolution respirometry of intact HepG2 cells); format: cell-based, human; conditions: for Percent increase in ATP (Rotenone Oxygraph Assay), Mean: Table 4, intact HepG2 cells, change in respiration rate; for Percent increase in ATP (Rotenone Oxygraph Assay), Mean / Rotenone Oxygraph Assay % Increase: 1 μM rotenone, compound 10 μM; for Rotenone Oxygraph Assay % Increase: Table 7
Procedure: The Oxygraph-2 k (O2k, OROBOROS INSTRUMENTS, Austria) was used for measurements of respiration of intact cells. The respirometry was performed in Dulbecco's Modified Eagle Medium (DMEM) high glucose without supplements. All experiments were performed at 37° C.
HepG2 cells (ATCC collection code HB-8065™) were cultured in 10 cm^2 culture dishes in DMEM high glucose medium supplemented with 10% fetal bovine serum (FBS) and 100 units/mL penicillin and 100 μg/mL streptomycin until approximately 90% confluence was reached. Immediately prior to performing the respirometric assay, the cells were washed with media without FBS, trypsinized and resuspended in DMEM high glucose without FBS.
The final concentration of intact cells in the O2k-chamber was 0.5·10^6/mL. After stabilization of respiration, the Complex I inhibitor, rotenone, at 1 μM final concentration was added to inhibit electron flux via Complex I. Then, compound to be tested was added at 10 μM final concentration, and the change in respiration rate of intact cells was monitored.

Nrf-2 = Nrf-2 Activation Assay (Nrf-2 Assay); format: cell-based, human; conditions: for activation of Nrf-2 pathway, in words: FIG. 7; for Nrf-2 Assay: Table 7, 1 μM compound, 24 hours, qPCR of Nrf-2 responsive genes
Procedure: This assay was developed internally and was designed to determine if the novel test compounds disclosed herein active Nrf-2 and thereby promote resolution of inflammation by the mechanism believed to be responsible for the activity of omaveloxolone.
Briefly, GM03665 Friedreich Ataxia patient fibroblasts were grown in 12 Well Plates (TC Cell+F) (Sarstedt, Numbrecht Germany), at a density of […] in DMEM/F12 (Gibco, ThermoFisher Scientific, Waltham, MA, USA) cell media supplemented with 10% FBS and 1% Pen/Strep. Cells were left to rest overnight at 37° C. in a humidified atmosphere with 5% CO2 to allow attachment of the cells to the culture plate. Before continuing assay visual inspection of each well was done by light microscopy to detect any possible bacterial and fungal contamination. […] After incubation, cell media was removed and total RNA from the cells was isolated using E.Z.N.A.® Total RNA Kit I (Omega Bio-tek, Norcross, Georgia, USA) spin columns, and first-strand cDNA synthesis was carried out using a High Capacity cDNA Reverse Transcription Kit (Applied Biosystems™, Foster City, CA) following the manufacturer's instructions. qPCR analysis of gene expression was performed by mixing SYBR® Green Master Mix (Applied Biosystems™) with synthesized cDNA and forward and reverse primers. […] (60 cycles), and 95° C. for 60 seconds, followed by melt curve analysis at 72-95° C., 0.3° C./sec. The relative expression levels for each gene were calculated with the ΔΔCt method and normalized to the expression of REEP5 and SNRPD3 genes.

lipoxygenase-15 enzyme = lipoxygenase-15 enzyme (Glycine max (Soybean) (Glycine hispida), UniProt P08170); assay: Lipoxygenase-15 Assay (LO-15 Assay); conditions: reduced form of compounds

Compound	activity in BSO assay (protection from BSO induced cell death), in words [1]	EC50 ([1]; Homo sapiens, Fibroblast, FA patient fibroblasts pretreated with compound, read-out: EC50 (nM) BSO Assay)	activity in both the BSO Assay and the Rotenone ATP Assay, in words [2]	EC50 ([2]; Homo sapiens, 1 h, ATP bioluminescence, read-out: EC50 Rotenone ATP Assay)	Rotenone ATP Assay EC50, nM ([2]; Table 7)	Complex I by-pass activity / restoring ATP production, in words [2]	activity in RSL3 assay (protection from RSL3 induced ferroptosis), in words (GM03665 cells)	activity in Rotenone Oxygraph Assay, in words (HepG2 cells)	Percent increase in ATP (Rotenone Oxygraph Assay), Mean (HepG2 cells)	Rotenone Oxygraph Assay % Increase (HepG2 cells)	activation of Nrf-2 pathway, in words (Nrf-2)	Nrf-2 Assay (Nrf-2)	activity in LO-15 assay, in words (lipoxygenase-15 enzyme)	EC50 ([1]; Table 7, FA patient fibroblasts, read-out: BSO Assay)	EC50 ([2]; ATP bioluminescence, read-out: EC50 Rotenone ATP Assay)	EC50 ([2]; Table 7, read-out: Rotenone ATP Assay EC50)	EC50 (GM03665 cells; Table 3, 2 μM RSL3, 24 hours, MTT, mean of at least three measurements, unit printed in Table 7, read-out: RSL3 Assay EC50, Mean)	EC50 (GM03665 cells; Table 7, 2 μM RSL3, 24 hours, MTT, read-out: RSL3 Assay EC50)	RSL3 Assay EC50, Mean (GM03665 cells; Table 3, 2 μM RSL3, 24 hours, MTT, mean of at least three measurements, unit printed in Table 7)	RSL3 Assay EC50, nM (GM03665 cells; Table 7, 2 μM RSL3, 24 hours, MTT)
CC(C)=CCC/C(C)=C/CC/C(C)=C/CC[C@@](C)(O)CCC1=C(C)C(=O)C(C)=C(C)C1=O (stereo in doubt) [Vatiquinone, reference compound]	ability to circumvent BSO induced cell death; also recorded: active	< 100 nM	do not possess both activities; also recorded: none of them are active in both assays	> 3000 nM	Inactive	not	active	inactive	Inactive	Inactive	–	–	–	–	–	–	–	–	–	–
CC1=C(C)C(=O)C(CC[C@](C)(O)CC/C=C(\C)CCC=C(F)F)=C(C)C1=O [Compound H, (R,E)-2-(11,11-difluoro-3-hydroxy-3,7-dimethylundeca-6,10-dien-1-yl)-3,5,6-trimethylcyclohexa-2,5-diene-1,4-dione]	able to prevent ferroptotic cell death; also recorded: active	–	–	–	–	active	active; also recorded: able to prevent ferroptotic cell death	–	–	54.3 +/− 13%	do not activate	Inactive	active; also recorded: effective inhibitors	–	–	–	–	–	–	–
(R)-2-(3-hydroxy-3-methyl-4-(3-(trimethylsilyl)propoxy)butyl)-3,5,6-trimethylcyclohexa-2,5-diene-1,4-dione [Compound M]	able to prevent ferroptotic cell death; also recorded: active	–	–	–	–	active	active; also recorded: able to prevent ferroptotic cell death	–	–	56.6 +/− 11.3%	do not activate	Inactive	best result; also recorded: effective inhibitors	61.2 nM	1000 to 3000 nM	1340 nM	41.2 nM	41.2 nM	–	–
COC1=C(OC)C(=O)C(CCCCCCCCCCO)=C(C)C1=O [Idebenone]	very weakly active/borderline inactive	–	do not possess both activities; also recorded: none of them are active in both assays	–	–	ability to restore ATP production when Complex I is inhibited; also recorded: active	–	–	–	70.2 +/− 15%	–	–	–	–	–	–	–	–	–	–
CC1(C)CC[C@]2(NC(=O)C(C)(F)F)CC[C@]3(C)[C@H](C(=O)C=C4[C@@]5(C)C=C(C#N)C(=O)C(C)(C)[C@@H]5CC[C@]43C)[C@@H]2C1 [Omaveloxolone, reference compound]	ability to circumvent BSO induced cell death; also recorded: displayed anti-ferroptotic activity; also recorded: active	–	do not possess both activities; also recorded: none of them are active in both assays	–	Inactive	not	–	inactive	Inactive	Inactive	positive and does	Active	–	–	–	–	–	–	Inactive	Inactive
Cc1c(C)c2c(c(C)c1O)CC[C@@](C)(CCC=C(F)F)O2 [Compound 67, (R)-2-(4,4-difluorobut-3-en-1-yl)-2,5,7,8-tetramethylchroman-6-ol]	–	–	possess both activities	–	–	–	–	–	–	–	–	–	–	–	–	–	–	–	–	–
